# Results as given in PMC6920801, “Conformation and Aggregation of Human Serum Albumin in the Presence of Green Tea Polyphenol (EGCg) and/or Palmitic Acid” (Biomolecules, 2019).
# Biological target: T1, Human serum albumin (HSA) (Homo sapiens, UniProt P02768)
# T1 construct: gene ALB; fatty acid-free albumin from human serum; CPM-labelled at Cys-34 for FRET
# Assay: FRET (Trp-214 to CPM-Cys-34) titration with one-site fit; Trp fluorescence quenching, CD, DLS
# Type: binding
# Text: FRET (Trp-214 to CPM-Cys-34) titration with one-site fit; Trp fluorescence quenching, CD, DLS on Human serum albumin (HSA) | The effect was dose dependent and fit a one binding site isotherm, with a calculated maximum change in distance
# T1 sequence (P02768 25-609): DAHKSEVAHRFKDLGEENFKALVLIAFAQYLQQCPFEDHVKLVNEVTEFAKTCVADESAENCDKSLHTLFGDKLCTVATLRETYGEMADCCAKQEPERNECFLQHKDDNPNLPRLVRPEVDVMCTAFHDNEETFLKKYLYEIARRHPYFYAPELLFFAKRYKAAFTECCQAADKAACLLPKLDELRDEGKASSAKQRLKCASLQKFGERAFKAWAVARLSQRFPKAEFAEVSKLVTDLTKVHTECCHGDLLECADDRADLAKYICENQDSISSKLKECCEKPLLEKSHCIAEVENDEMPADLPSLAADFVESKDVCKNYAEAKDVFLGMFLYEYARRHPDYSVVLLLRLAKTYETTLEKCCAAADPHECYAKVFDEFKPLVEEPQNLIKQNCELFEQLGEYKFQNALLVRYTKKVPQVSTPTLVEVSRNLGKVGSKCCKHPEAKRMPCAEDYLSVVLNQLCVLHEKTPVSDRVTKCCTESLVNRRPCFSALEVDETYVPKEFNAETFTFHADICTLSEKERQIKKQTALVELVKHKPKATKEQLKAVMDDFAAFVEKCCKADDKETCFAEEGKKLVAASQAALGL
smiles,measurement,value
"O=C(O[C@@H]1Cc2c(O)cc(O)cc2O[C@@H]1c1cc(O)c(O)c(O)c1)c1cc(O)c(O)c(O)c1 [EGCg, (-)-epigallocatechin gallate]",EC50,3.7 µM
